Each structure is given as a SMILES string.

One test concerns KOPTK1 cells. Put plainly: Metabolic labeling of nascent protein with L-azidohomoalanine (AHA). The class given is cell-based, human. The settings on record: 25 nM; p vs. vehicle 3.6×10−3. Here is the method:
(Non-radioactive) Metabolic labeling of nascent protein. KOPTK1 cells were labeled for nascent protein synthesis using Click-iTR AHA (L-azidohomoalanine) metabolic labeling reagent obtained from Invitrogen (cat no. C10102) as per manufacturer's instructions. Briefly, following silvestrol, Cycloheximide or DMSO treated cells were incubated in methionine free medium for 30 min prior to AHA labeling for 1 hr. Cells were fixed with 4% paraformaldehyde in PBS for 15 min, permeablized with 0.25% Triton X-100 in PBS for 15 min followed by one wash with 3% BSA. Cells were then stained using Alexa Fluor 488 Alkyne (Invitrogen cat no. A10267) with Click-iT Cell reaction Buffer Kit (Invitrogen cat no. C10269). Changes in mean fluorescence intensity as a measure of newly synthesized protein was detected by Flow cytometry analysis.
The number of ribosomes occupying a given transcript is given as gene specific RF reads per one million total reads (RPM).
FIG. 10 depicts ribosome profiling quality control data and effects on translation. A and B) Read counts by length of mapped sequence before and after filtering rRNA, linker reads, non-coding RNAs, short mapped sequences (“noisy” reads; see text and method for details). C and D) Read length frequency histograms and mapping analysis of ribosome footprint data after quality control filtering for vehicle treated cells (C) or silvestrol treated cells (D). […]

The test system of the next test is renal carcinoma lines. Put plainly: Silvestrol sensitivity of renal carcinoma lines. It counts as cell-based. To be noted: ACHN, A498, CAKI-1, CAKI-2 to 786-O.
In a further test the test system is PANC-1. In words: Silvestrol sensitivity and KRAS protein levels in PANC-1. It counts as cell-based. The source says:
KRAS has a long T1/2 compared to MYC, and therefore the effect is less pronounced. The in vitro activity of an S6 kinase inhibitor, rapamycin, silvestrol and combinations on PNAC1 and MiaPaca2 cells are shown in FIGS. 24B and 24C, respectively.

For the molecule `COC(=O)[C@H]1[C@@H](O)[C@@]2(O)c3c(OC)cc(O[C@@H]4O[C@@H]([C@H](O)CO)CO[C@H]4OC)cc3O[C@@]2(c2ccc(OC)cc2)[C@@H]1c1ccccc1` [silvestrol], the “max. reduction of nascent protein synthesis (AHA labeling)” value in the test with KOPTK1 cells is recorded as about 60%. Besides, the sensitivity result in the test on renal carcinoma lines is “range of sensitivities”. The KRAS expression entry is recorded as “loss of KRAS expression” with PANC-1 (PANC1 cells, 50 nM) and “loss of KRAS expression” in the test on PANC-1 (PANC-1, 20 nM).

These data come from patent publication US20150219624A1, “METHODS FOR IDENTIFYING ANTI-CANCER COMPOUNDS” (MEMORIAL SLOAN KETTERING CANCER CENTER, priority 2013, published 2015).
